Results as given in article PMC4979872, “Synthesis, fluorescence properties and the promising cytotoxicity of pyrene–derived aminophosphonates” (Beilstein Journal of Organic Chemistry, 2016).

Assays:
normal human lymphocytes = assay: MTT cytotoxicity assay on normal human lymphocytes; type: cell-based; details: 24 h incubation, 5 to 600 µM, mean ± SEM of six experiments
Source text: (§1) The cytotoxic effects of dimethyl aminophosphonates 3Aa, 3Ab, 3Ac, 3Ad, 3Ai and dimethyl [hydroxy(pyren-1-yl)methyl]phosphonate (5A) were investigated with two human colorectal carcinoma cell lines: HT29 and HCT116 and also on the normal human lymphocytes. For this a standard MTT (3-(4,5-dimethylthiazol-2-yl)-2,5-diphenyltetrazolium bromide) test was used and results presented as IC50 values (i.e., the concentration of the compound that inhibits 50% growth). The activity of the tested compounds was studied in the concentration range from 5 to 600 µM. […]
(§2) 2.1. Materials and methods
(§3) MTT assay (3-(4,5-dimethylthiazol-2-yl)-2,5-diphenyltetrazolium bromide) facilitates the determination of the level of cell survival after the exposure of cells to potentially toxic substances. The cytotoxicity level of studied compounds was evaluated by determining the dose or concentration that induces a standard biological response. The assessment of the cytotoxic activity of the tested compounds was carried out based on IC50 values – the concentration of the compound which causes inhibition of cell proliferation by 50% as compared to the negative control. To determine the above concentration, was created graphs of cell viability expressed in percentages, depending on the concentrations of studied […]
(§4) MTT (3(4,5-dimethylthiazol-2-yl)-2,5-diphenyltetrazolium bromide), lauryl sulfate (SLS), N,N-dimethylformamide (DMF), dimethyl sulfoxide (DMSO), penicillin-streptomycin solution stabilized, MEM non-essential amino acids solution, Histopaque 1077, and buffered saline (PBS) were purchased from Sigma Chemical Co. Foetal bovine serum (FBS), phytohemagglutinin (PHA), RPMI 1640 medium and Trypsin-EDTA were supplied by […]
All other chemicals (chemical reagents, substrates, and solvents) were of the highest commercial grade available and were purchased from CytoGen and Sigma–Aldrich.
Lymphocytes were isolated from the peripheral blood of healthy, non-smoking donors of both sexes by centrifugation in a density gradient of Histopaque 1077 (15 min., 300 × g) (blood was obtained from the Blood Donation Center in Lodz, Poland). The cells were suspended in the culture medium containing RPMI 1640, inactivated FBS (15%), penicillin and streptomycin (1%) and PHA (1%). […]
The lymphocytes, HCT116 […]
and HT29 cells were cultured at 37 °C in a humidified atmosphere of 95% air and 5% CO2.
(§5) A MTT assay was used to assess cell survival after treatment with studied compounds. The MTT assay is a quantitative colorimetric method to determine cell proliferation after treatment with the tested compounds. It is widely used to estimate the cytotoxic effect of chemicals on different types of cells. MTT (3(4,5-dimethyl-2-thiazolyl)-2,5-diphenyl-2H-tetrazolium bromide) is a water-soluble tetrazolium salt, which is converted into an insoluble purple formazan by cleavage of the tertazolium ring by succinate dehydrogenase within the mitochondria. The formazan product is impermeable to the cell membranes and therefore it accumulates in living cells. The purple crystals were extracted into a solution for homogeneous staining and the absorbance was read on a spectrophotometer at 595 nm. The percent reduction of MTT was compared to controls (cells not exposed to tested compounds), which represented 100% MTT reduction. The assay was optimized for the cell lines and chemical compounds used in the experiments.
(§6) The cancer cells and human lymphocytes were grown for 24 h on 96-well plates at a density of 6–8 × 10^3 cells/well and 8 × 10^5 cells/well, respectively. Then the cells were treated with the tested compounds for 24 h incubation periods in a volume of 50 μl per well for the lymphocytes and 100 μl per well for the HCT116, HT29 cells. Subsequently, a fresh MTT solution (lymphocytes, HCT116 and HT29: 20 μl, 5 mg/ml in sterile PBS) was added to each well for the next 4 h. Purple crystals forming in the cancer cells after the reduction of MTT were dissolved by DMSO (100 μl/well). In the case of lymphocytes this was achieved by […]

[1] = system: HT29 human colorectal adenocarcinoma cell line; assay: MTT cytotoxicity assay on HT29 cells; type: cell-based; details: 24 h incubation, 5 to 600 µM, mean ± SEM of six experiments
Source text: as §1, §2, §3, §4
(§7) All other chemicals (chemical reagents, substrates, and solvents) were of the highest commercial grade available and were purchased from CytoGen and Sigma–Aldrich. […]
(§8) The human colorectal carcinoma cell line (HCT116) and the human colorectal adenocarcinoma cell line (HT29) were obtained from the American Type Culture Collection (ATCC, Rockville, USA). The HCT116 cells were cultured in RPMI 1640 supplemented with FBS (10%) and antibiotics (1%): penicillin and streptomycin. The HT29 cells were cultured in RPMI 1640 medium supplemented with FBS (10%), antibiotics (1%): penicillin and streptomycin, and MEM non-essential amino acids solution (1%). The lymphocytes, HCT116 and HT29 cells were cultured at 37 °C in a humidified atmosphere of 95% air and 5% CO2.
as §5
as §6, with “each” for “each well for the next 4 h. Purple crystals forming in the cancer cells after the reduction of MTT were dissolved by DMSO (100 μl/well). In the case of lymphocytes this was achieved by”
(§9) well for the next 4 h. […]

[2] = system: HCT116 human colorectal carcinoma cell line; assay: MTT cytotoxicity assay on HCT116 cells; type: cell-based; details: 24 h incubation, 5 to 600 µM, mean ± SEM of six experiments
Source text: as §1, §2, §3, §4, §7, §8, §5
as §6, with “each” for “each well for the next 4 h. Purple crystals forming in the cancer cells after the reduction of MTT were dissolved by DMSO (100 μl/well). In the case of lymphocytes this was achieved by”
as §9

Row | Compound | melting point [°C] | IC50 (normal human lymphocytes; Homo sapiens, Lymphocyte, 24 h) [µM] | IC50 ([1]; Homo sapiens, HT-29, 24 h) [µM] | IC50 ([2]; Homo sapiens, HCT-116, 24 h) [µM] | IC50 (normal human lymphocytes) [µM] | IC50 [1] [µM] | IC50 [2] [µM]
1 | O=P(OCc1ccccc1)(OCc1ccccc1)C(NCc1ccccc1)c1ccc2ccc3cccc4ccc1c2c34 (centres unmarked) | 100 to 101 |  |  |  |  |  | 
2 | O=P(O)(O)C(NCc1ccccc1)c1ccc2ccc3cccc4ccc1c2c34 (centres unmarked) | 235 to 236 |  |  |  |  |  | 
3 | COP(=O)(OC)C(NCc1ccccc1)c1ccc2ccc3cccc4ccc1c2c34 (centres unmarked) [Compound 3Aa] |  | 89.2 | 29.2 | 29 |  |  | 
4 | COP(=O)(OC)C(Nc1ccccc1)c1ccc2ccc3cccc4ccc1c2c34 (centres unmarked) [Compound 3Ab] | 203 to 204 | 334 | 106 | 70.8 |  |  | 
5 | COP(=O)(OC)C(Nc1ccc(C)cc1)c1ccc2ccc3cccc4ccc1c2c34 (centres unmarked) [Compound 3Ac, dimethyl N-(4-methylphenyl)amino(pyren-1-yl)methylphosphonate] |  | 17.5 | 15.8 | 15.9 |  |  | 
6 | COc1ccc(NC(c2ccc3ccc4cccc5ccc2c3c45)P(=O)(OC)OC)cc1 (centres unmarked) [Compound 3Ad, dimethyl N-(4-methoxyphenyl)amino(pyren-1-yl)methylphosphonate] |  | ~230 | ~20 | ~20 | 231 | 24.2 | 20.8
7 | COP(=O)(OC)C(Nc1cccc(C)c1)c1ccc2ccc3cccc4ccc1c2c34 (centres unmarked) [Compound 3Ai, dimethyl N-(m-methylphenyl)amino(pyren-1-yl)methylphosphonate] | 209 to 210 | 75.8 | 57.5 | 20.2 |  |  | 
8 | Cc1ccc(NC(c2ccc3ccc4cccc5ccc2c3c45)P(=O)(O)O)cc1 (centres unmarked) [Compound 4c] | 210 to 211 | ~17 | ~15 | ~15 |  |  | 
9 | COP(=O)(OC)C(O)c1ccc2ccc3cccc4ccc1c2c34 (centres unmarked) [Compound 5A, dimethyl hydroxy(pyren-1-yl)methylphosphonate] |  | 136 | 25.8 | 40.4 |  |  | 
